# Measured values published in US10519177B2, “Heterocyclic compounds and uses thereof” (Plexxikon Inc., priority 2013, dated 2019).
# Target: BRD4-BD1 (44-164) (Homo sapiens (Human), UniProt O60885)
# Assay: Alphascreen binding assay BRD4-BD1
# Conditions: BRD4(1) H4; read-out: Biochemical activity (IC50 μM) BRD4(1) H4
# Method in brief: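 In this competition format, compounds displace a biotinylated tetra-acetyl H4 peptide from E. coli-expressed human BRD4 bromodomain constructs captured on nickel chelate beads. The reaction runs at pH 7.5 with 2 mM DTT and detergent for 1 h at room temperature before a 30 min bead step.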
row,SMILES,IC50 [µM]
1,"CCC(c1cn(C)c2ncc(-c3c(C)noc3C)cc12)C1CCC(F)(F)CC1 (centres unmarked) [P-0118, 4-[3-[1-(4,4-difluorocyclohexyl)propyl]-1-methyl-pyrrolo[2,3-b]pyridin-5-yl]-3,5-dimethyl-isoxazole]",< 1
2,"CC(=O)N1CCC(Cc2cn(C)c3ncc(-c4c(C)noc4C)cc23)CC1 [P-0120, 1-[4-[[5-(3,5-dimethylisoxazol-4-yl)-1-methyl-pyrrolo[2,3-b]pyridin-3-yl]methyl]-1-piperidyl]ethanone]",< 1
3,"Cc1noc(C)c1-c1cnc2c(-c3cnn(C)c3)cn(S(=O)(=O)c3ccccc3F)c2c1 [P-0121, 4-[1-(2-fluorophenyl)sulfonyl-3-(1-methyl-pyrazol-4-yl)pyrrolo[3,2-b]pyridin-6-yl]-3,5-dimethyl-isoxazole]",< 1
4,"Cc1noc(C)c1-c1cnc2c(-c3cnn(C)c3)cn(S(=O)(=O)c3cccc(F)c3)c2c1 [P-0122, 4-[1-(3-fluorophenyl)sulfonyl-3-(1-methyl-pyrazol-4-yl)pyrrolo[3,2-b]pyridin-6-yl]-3,5-dimethyl-isoxazole]",< 1
5,"Cc1noc(C)c1-c1cnc2c(-c3cnn(C)c3)cn(S(=O)(=O)c3ccc(F)cc3)c2c1 [P-0123, 4-[1-(4-fluorophenyl)sulfonyl-3-(1-methyl-pyrazol-4-yl)pyrrolo[3,2-b]pyridin-6-yl]-3,5-dimethyl-isoxazole]",< 1
6,"CCn1cc(-c2cn(S(=O)(=O)c3ccccc3)c3cc(-c4c(C)noc4C)cnc23)cn1 [P-0124, 4-[1-(benzenesulfonyl)-3-(1-ethylpyrazol-4-yl)pyrrolo[3,2-b]pyridin-6-yl]-3,5-dimethyl-isoxazole]",< 1
7,"CCn1cc(-c2cn(S(=O)(=O)c3ccccc3F)c3cc(-c4c(C)noc4C)cnc23)cn1 [P-0125, 4-[3-(1-ethylpyrazol-4-yl)-1-(2-fluorophenyl)sulfonyl-pyrrolo[3,2-b]pyridin-6-yl]-3,5-dimethyl-isoxazole]",< 1
8,"C=CCn1cc(-c2cn(S(=O)(=O)c3ccccc3)c3cc(-c4c(C)noc4C)cnc23)cn1 [P-0126, 4-[3-(1-allylpyrazol-4-yl)-1-(benzenesulfonyl)pyrrolo[3,2-b]pyridin-6-yl]-3,5-dimethyl-isoxazole]",< 1
9,"C=CCn1cc(-c2cn(S(=O)(=O)c3ccccc3F)c3cc(-c4c(C)noc4C)cnc23)cn1 [P-0127, 4-[3-(1-allylpyrazol-4-yl)-1-(2-fluorophenyl)sulfonyl-pyrrolo[3,2-b]pyridin-6-yl]-3,5-dimethyl-isoxazole]",< 1
10,"C=CCn1cc(-c2cn(S(=O)(=O)C3CCCC3)c3cc(-c4c(C)noc4C)cnc23)cn1 [P-0128, 4-[3-(1-allylpyrazol-4-yl)-1-cyclopentyl-sulfonyl-pyrrolo[3,2-b]pyridin-6-yl]-3,5-dimethyl-isoxazole]",< 1
11,"C=CCn1cc(-c2cn(S(=O)(=O)CCC(F)(F)F)c3cc(-c4c(C)noc4C)cnc23)cn1 [P-0129, 4-[3-(1-allylpyrazol-4-yl)-1-(3,3,3-trifluoro-propylsulfonyl)pyrrolo[3,2-b]pyridin-6-yl]-3,5-dimethyl-isoxazole]",< 1
12,"Cc1noc(C)c1-c1cnc2c(-c3cnn(C(F)F)c3)cn(S(=O)(=O)c3ccccc3)c2c1 [P-0131, 4-[1-(benzenesulfonyl)-3-[1-(difluoromethyl)pyrazol-4-yl]pyrrolo[3,2-b]pyridin-6-yl]-3,5-dimethyl-isoxazole]",< 1
13,"Cc1noc(C)c1-c1cnc2c(-c3cnn(C(F)F)c3)cn(S(=O)(=O)c3ccccc3F)c2c1 [P-0132, 4-[3-[1-(difluoromethyl)pyrazol-4-yl]-1-(2-fluorophenyl)sulfonyl-pyrrolo[3,2-b]pyridin-6-yl]-3,5-dimethyl-isoxazole]",< 1
14,"Cc1noc(C)c1-c1cnc2c(-c3cnn(C(F)F)c3)cn(S(=O)(=O)C3CCCC3)c2c1 [P-0133, 4-[1-cyclopentylsulfonyl-3-[1-(difluoromethyl)pyrazol-4-yl]pyrrolo[3,2-b]pyridin-6-yl]-3,5-dimethyl-isoxazole]",< 1
15,"Cc1noc(C)c1-c1cnc2c(-c3cnn(C(F)F)c3)cn(S(=O)(=O)C3CCC3)c2c1 [P-0134, 4-[1-cyclobutyl-sulfonyl-3-[1-(difluoro-methyl)pyrazol-4-yl]pyrrolo[3,2-b]pyridin-6-yl]-3,5-dimethyl-isoxazole]",< 1
16,"CCCS(=O)(=O)n1cc(-c2cnn(C(F)F)c2)c2ncc(-c3c(C)noc3C)cc21 [P-0135, 4-[3-[1-(difluoro-methyl)pyrazol-4-yl]-1-propylsulfonyl-pyrrolo[3,2-b]pyridin-6-yl]-3,5-dimethyl-isoxazole]",< 1
17,"Cc1noc(C)c1-c1cnc2c(-c3cnn(C(F)F)c3)cn(S(=O)(=O)CCC(F)(F)F)c2c1 [P-0136, 4-[3-[1-(difluoro-methyl)pyrazol-4-yl]-1-(3,3,3-trifluoro-propylsulfonyl)pyrrolo[3,2-b]pyridin-6-yl]-3,5-dimethyl-isoxazole]",< 1
18,"C=CCn1cc(-c2cn(S(=O)(=O)CCC)c3cc(-c4c(C)noc4C)cnc23)cn1 [P-0137, 4-[3-(1-allylpyrazol-4-yl)-1-propylsulfonyl-pyrrolo[3,2-b]pyridin-6-yl]-3,5-dimethyl-isoxazole]",< 1

row,SMILES,IC50 [µM]
1,"C=CCn1cc(-c2cn(S(=O)(=O)C(C)CC)c3cc(-c4c(C)noc4C)cnc23)cn1 (centres unmarked) [P-0138, 4-[3-(1-allylpyrazol-4-yl)-1-sec-butyl-sulfonyl-pyrrolo[3,2-b]pyridin-6-yl]-3,5-dimethyl-isoxazole]",< 1
2,"C=CCn1cc(-c2cn(S(=O)(=O)C3CC3)c3cc(-c4c(C)noc4C)cnc23)cn1 [P-0139, 4-[3-(1-allylpyrazol-4-yl)-1-cyclopropyl-sulfonyl-pyrrolo[3,2-b]pyridin-6-yl]-3,5-dimethyl-isoxazole]",< 1
3,"C=CCn1cc(-c2cn(S(=O)(=O)CC3CC3)c3cc(-c4c(C)noc4C)cnc23)cn1 [P-0140, 4-[3-(1-allylpyrazol-4-yl)-1-(cyclopropyl-methylsulfonyl)pyrrolo[3,2-b]pyridin-6-yl]-3,5-dimethyl-isoxazole]",< 1
4,"Cc1noc(C)c1-c1cnc2[nH]cc(Sc3cccc(F)c3)c2c1 [P-0141, 4-[3-(3-fluorophenyl)sulfanyl-1H-pyrrolo[2,3-b]pyridin-5-yl]-3,5-dimethyl-isoxazole]",< 1
5,"Cc1noc(C)c1-c1cnc2[nH]cc([S+]([O-])c3cccc(F)c3)c2c1 (centres unmarked) [P-0142, 4-[3-(3-fluorophenyl)sulfinyl-1H-pyrrolo[2,3-b]pyridin-5-yl]-3,5-dimethyl-isoxazole]",< 1
6,"Cc1noc(C)c1-c1cnc2[nH]cc(S(=O)(=O)c3cccc(F)c3)c2c1 [P-0143, 4-[3-(3-fluorophenyl)sulfonyl-1H-pyrrolo[2,3-b]pyridin-5-yl]-3,5-dimethyl-isoxazole]",< 1
7,"Cc1noc(C)c1-c1cnc2[nH]cc(Sc3ccccc3)c2c1 [P-0144, 3,5-dimethyl-4-(3-phenylsulfanyl-1H-pyrrolo[2,3-b]pyridin-5-yl)isoxazole]",< 1
8,"Cc1noc(C)c1-c1cnc2[nH]cc(S(=O)(=O)c3ccccc3)c2c1 [P-0145, 4-[3-(benzenesulfonyl)-1H-pyrrolo[2,3-b]pyridin-5-yl]-3,5-dimethyl-isoxazole]",< 1
9,"Cc1noc(C)c1-c1cnc2c(-c3cnn(CC(F)(F)F)c3)cn(S(=O)(=O)c3ccccc3)c2c1 [P-0146, 4-[1-(benzenesulfonyl)-3-[1-(2,2,2-trifluoroethyl)pyrazol-4-yl]pyrrolo[3,2-b]pyridin-6-yl]-3,5-dimethyl-isoxazole]",< 1
10,"COCCn1cc(-c2cn(S(=O)(=O)c3ccccc3)c3cc(-c4c(C)noc4C)cnc23)cn1 [P-0147, 4-[1-(benzenesulfonyl)-3-[1-(2-methoxyethyl)pyrazol-4-yl]pyrrolo[3,2-b]pyridin-6-yl]-3,5-dimethyl-isoxazole]",< 1
11,"Cc1noc(C)c1-c1cnc2c(-c3cnn(C4CCOC4)c3)cn(S(=O)(=O)c3ccccc3)c2c1 (centres unmarked) [P-0148, 4-[1-(benzenesulfonyl)-3-(1-tetrahydrofuran-3-ylpyrazol-4-yl)pyrrolo[3,2-b]pyridin-6-yl]-3,5-dimethyl-isoxazole]",< 1
12,"Cc1noc(C)c1-c1cnc2c(-c3cnn(CC(F)(F)F)c3)cn(S(=O)(=O)C3CCCC3)c2c1 [P-0149, 4-[1-cyclopentyl-sulfonyl-3-[1-(2,2,2-trifluoroethyl)pyrazol-4-yl]pyrrolo[3,2-b]pyridin-6-yl]-3,5-dimethyl-isoxazole]",< 1
13,"CCCS(=O)(=O)n1cc(-c2cnn(CC(F)(F)F)c2)c2ncc(-c3c(C)noc3C)cc21 [P-0150, 3,5-dimethyl-4-[1-propylsulfonyl-3-[1-(2,2,2-trifluoroethyl)pyrazol-4-yl]pyrrolo[3,2-b]pyridin-6-yl]isoxazole]",< 1
14,"COCCn1cc(-c2cn(S(=O)(=O)C3CCCC3)c3cc(-c4c(C)noc4C)cnc23)cn1 [P-0151, 4-[1-cyclopentyl-sulfonyl-3-[1-(2-methoxyethyl)pyrazol-4-yl]pyrrolo[3,2-b]pyridin-6-yl]-3,5-dimethyl-isoxazole]",< 1
15,"CCCS(=O)(=O)n1cc(-c2cnn(CCOC)c2)c2ncc(-c3c(C)noc3C)cc21 [P-0152, 4-[3-[1-(2-methoxy-ethyl)pyrazol-4-yl]-1-propylsulfonyl-pyrrolo[3,2-b]pyridin-6-yl]-3,5-dimethyl-isoxazole]",< 1
16,"Cc1noc(C)c1-c1cnc2c(-c3cnn(C4CCOC4)c3)cn(S(=O)(=O)C3CCCC3)c2c1 (centres unmarked) [P-0153, 4-[1-cyclopentyl-sulfonyl-3-(1-tetrahydrofuran-3-ylpyrazol-4-yl)pyrrolo[3,2-b]pyridin-6-yl]-3,5-dimethyl-isoxazole]",< 1
17,"CCCS(=O)(=O)n1cc(-c2cnn(C3CCOC3)c2)c2ncc(-c3c(C)noc3C)cc21 (centres unmarked) [P-0154, 3,5-dimethyl-4-[1-propylsulfonyl-3-(1-tetrahydrofuran-3-ylpyrazol-4-yl)pyrrolo[3,2-b]pyridin-6-yl]isoxazole]",< 1
